Tests used:
[1] = tested on: Escherichia coli NCTC 8196; test: MIC, microtitre dilution test (growth by optical density at 620 nm); assay type: cell-based; settings: Table 2; Escherichia coli
Method: (§1) Casein/soybean flour peptone bouillon for the preparation of pre-cultures of the test bacteria and yeast.
(§2) The test substances are predissolved in dimethyl sulfoxide (DMSO) and tested in a dilution series of 1:2.
(§3) Bacteria and yeast are cultured overnight in CASO bouillon, the mould is cultured overnight on mycological slant agar, and washed off with 10 ml of 0.85% sodium chloride solution (+0.1% TritonX-100).
(§4) All the test organisms are adjusted to an organism count of 1-5×10^6 CFU/ml using 0.85% sodium chloride solution.
(§5) The test substances are pre-pipetted into microtitre plates in an amount of 8 μl per well.
(§6) Pre-diluted organism suspensions are diluted 1:100 in CASO bouillon (bacteria and yeast) or Sabouraud 2% glucose bouillon (mould) and are added in an amount of 192 μl per well to the test substances.
(§7) The test batches are incubated for 48 hours at 37° C. (bacteria and yeast) or for 5 days at 28° C. (mould).
(§8) After incubation, the growth is evaluated by reference to the turbidity of the test batches (optical density) at 620 nm in a microplate reader.
(§9) The minimum inhibitory concentration (MIC value) is the concentration of substance at which (compared with the growth of the control) an appreciable inhibition of growth (≦20% growth) of the test organisms is ascertained.
(§10) One microtitre plate is used for each test organism and substance concentration. All the substances are tested in duplicate.

[2] = tested on: Staphylococcus hominis DMS 20328; test: as above; assay type: cell-based; settings: Table 2; Staphylococcus hominis DMS 20328
Method: as §1, §2, §3, §4, §5, §6, §7, §8, §9, §10

COc1ccc2[nH]c3c(c2c1)C1CC(C)(C)NC(C)(C)C1C1C(=O)N(C)C(=O)C31 (centres unmarked) [Compound 168]
MIC [ppm] E. coli [1]: >120 ppm | MIC [ppm] S. hominis [2]: >120 ppm

O=C1NC(=O)C2C1c1[nH]c3ccccc3c1C1CCN(Cc3ccccc3)CC12 (centres unmarked) [Compound 60]
MIC [ppm] E. coli [1]: >120 ppm | MIC [ppm] S. hominis [2]: 120 ppm

CCCN1CCC2c3c([nH]c4ccccc34)C3C(=O)N(C)C(=O)C3C2C1 (centres unmarked) [Compound 114]
MIC [ppm] E. coli [1]: >120 ppm | MIC [ppm] S. hominis [2]: >120 ppm

CCN1CCC2c3c([nH]c4ccc(OC)cc34)C3C(=O)N(C)C(=O)C3C2C1 (centres unmarked) [Compound 176]
MIC [ppm] E. coli [1]: >120 ppm | MIC [ppm] S. hominis [2]: >120 ppm

CC(C)N1CCC2c3c([nH]c4ccccc34)C3C(=O)NC(=O)C3C2C1 (centres unmarked) [Compound 55]
MIC [ppm] E. coli [1]: >120 ppm | MIC [ppm] S. hominis [2]: >120 ppm

CC(C)(C)C1CCC2c3c([nH]c4ccccc34)C3C(=O)N(c4ccccc4)C(=O)C3C2C1 (centres unmarked) [Compound 13]
MIC [ppm] E. coli [1]: >120 ppm | MIC [ppm] S. hominis [2]: >120 ppm

CCC(C)(C)C1CCC2c3c([nH]c4ccc(OC)cc34)C3C(=O)NC(=O)C3C2C1 (centres unmarked) [Compound 102]
MIC [ppm] E. coli [1]: >120 ppm | MIC [ppm] S. hominis [2]: 60 ppm

CCc1cccc2c3c([nH]c12)C1C(=O)NC(=O)C1C1C3CC(C)(C)CC1(C)C (centres unmarked) [Compound 90]
MIC [ppm] E. coli [1]: >120 ppm | MIC [ppm] S. hominis [2]: >120 ppm

COc1ccc2[nH]c3c(c2c1)C1CCCC1C1C(=O)N(C)C(=O)C31 (centres unmarked) [Compound 165]
MIC [ppm] E. coli [1]: >120 ppm | MIC [ppm] S. hominis [2]: 120 ppm

COc1ccc2[nH]c3c(c2c1)C1CC(C)(C)CC(C)(C)C1C1C(=O)N(C)C(=O)C31 (centres unmarked) [Compound 181]
MIC [ppm] E. coli [1]: >120 ppm | MIC [ppm] S. hominis [2]: >120 ppm

CCCN1CCC2c3c([nH]c4ccccc34)C3C(=O)N(c4ccccc4)C(=O)C3C2C1 (centres unmarked) [Compound 15]
MIC [ppm] E. coli [1]: >120 ppm | MIC [ppm] S. hominis [2]: >120 ppm

CCCN1CCC2c3c([nH]c4ccc(OC)cc34)C3C(=O)N(C)C(=O)C3C2C1 (centres unmarked) [Compound 169]
MIC [ppm] E. coli [1]: >120 ppm | MIC [ppm] S. hominis [2]: >120 ppm

CCN1CCC2c3c([nH]c4ccccc34)C3C(=O)N(C)C(=O)C3C2C1 (centres unmarked) [Compound 121]
MIC [ppm] E. coli [1]: >120 ppm | MIC [ppm] S. hominis [2]: >120 ppm

CC1CCC2C(C1)c1c([nH]c3ccccc13)C1C(=O)NC(=O)C12 (centres unmarked) [Compound 56]
MIC [ppm] E. coli [1]: >120 ppm | MIC [ppm] S. hominis [2]: 30 ppm

CCOC(=O)N1CCC2c3c([nH]c4ccc(OC)cc34)C3C(=O)N(C)C(=O)C3C2C1 (centres unmarked) [Compound 170]
MIC [ppm] E. coli [1]: >120 ppm | MIC [ppm] S. hominis [2]: >120 ppm

CCc1cccc2c3c([nH]c12)C1C(=O)NC(=O)C1C1CCCCCCC31 (centres unmarked) [Compound 89]
MIC [ppm] E. coli [1]: >120 ppm | MIC [ppm] S. hominis [2]: 7.5 ppm

COc1ccc2[nH]c3c(c2c1)C1CCN(C)CC1C1C(=O)N(C)C(=O)C31 (centres unmarked) [Compound 178]
MIC [ppm] E. coli [1]: >120 ppm | MIC [ppm] S. hominis [2]: >120 ppm

COc1ccc2[nH]c3c(c2c1)C1CCCCCCC1C1C(=O)NC(=O)C31 (centres unmarked) [Compound 107]
MIC [ppm] E. coli [1]: >120 ppm | MIC [ppm] S. hominis [2]: 120 ppm

CCCN1CCC2c3c([nH]c4ccccc34)C3C(=O)N(CC)C(=O)C3C2C1 (centres unmarked) [Compound 41]
MIC [ppm] E. coli [1]: >120 ppm | MIC [ppm] S. hominis [2]: >120 ppm

CCc1cccc2c3c([nH]c12)C1C(=O)N(C)C(=O)C1C1CCCCCCC31 (centres unmarked) [Compound 162]
MIC [ppm] E. coli [1]: >120 ppm | MIC [ppm] S. hominis [2]: 120 ppm

CCC(C)(C)C1CCC2c3c([nH]c4ccc(OC)cc34)C3C(=O)N(C)C(=O)C3C2C1 (centres unmarked) [Compound 175]
MIC [ppm] E. coli [1]: >120 ppm | MIC [ppm] S. hominis [2]: >120 ppm

CCc1cccc2c3c([nH]c12)C1C(=O)NC(=O)C1C1CCCCC31 (centres unmarked) [Compound 74]
MIC [ppm] E. coli [1]: >120 ppm | MIC [ppm] S. hominis [2]: 60 ppm

CC(C)N1CCC2c3c([nH]c4ccccc34)C3C(=O)N(C)C(=O)C3C2C1 (centres unmarked) [Compound 116]
MIC [ppm] E. coli [1]: >120 ppm | MIC [ppm] S. hominis [2]: 120 ppm

COc1ccc2[nH]c3c(c2c1)C1CCCCC1C1C(=O)N(C)C(=O)C31 (centres unmarked) [Compound 164]
MIC [ppm] E. coli [1]: >120 ppm | MIC [ppm] S. hominis [2]: >120 ppm

COc1ccc2[nH]c3c(c2c1)C1CCCCCCCCCCC1C1C(=O)N(C)C(=O)C31 (centres unmarked) [Compound 179]
MIC [ppm] E. coli [1]: >120 ppm | MIC [ppm] S. hominis [2]: >120 ppm

COc1ccc2[nH]c3c(c2c1)C1CC(C)(C)CC(C)(C)C1C1C(=O)NC(=O)C31 (centres unmarked) [Compound 108]
MIC [ppm] E. coli [1]: >120 ppm | MIC [ppm] S. hominis [2]: >120 ppm

COc1ccc2[nH]c3c(c2c1)C1CCCCCC1C1C(=O)NC(=O)C31 (centres unmarked) [Compound 94]
MIC [ppm] E. coli [1]: >120 ppm | MIC [ppm] S. hominis [2]: >120 ppm

CCOC(=O)N1CCC2c3c([nH]c4ccccc34)C3C(=O)N(C)C(=O)C3C2C1 (centres unmarked) [Compound 115]
MIC [ppm] E. coli [1]: >120 ppm | MIC [ppm] S. hominis [2]: 60 ppm

COc1ccc2[nH]c3c(c2c1)C1CCCCC1C1C(=O)NC(=O)C31 (centres unmarked) [Compound 91]
MIC [ppm] E. coli [1]: >120 ppm | MIC [ppm] S. hominis [2]: >120 ppm

CCOC(=O)N1CCC2c3c([nH]c4ccccc34)C3C(=O)NC(=O)C3C2C1 (centres unmarked) [Compound 54]
MIC [ppm] E. coli [1]: >120 ppm | MIC [ppm] S. hominis [2]: >120 ppm

CN1C(=O)C2c3[nH]c4ccc(Br)cc4c3C3CCCCCC3C2C1=O (centres unmarked) [Compound 130]
MIC [ppm] E. coli [1]: >120 ppm | MIC [ppm] S. hominis [2]: 15 ppm

CCCC1CCC2c3c([nH]c4ccccc34)C3C(=O)N(C)C(=O)C3C2C1 (centres unmarked) [Compound 119]
MIC [ppm] E. coli [1]: >120 ppm | MIC [ppm] S. hominis [2]: >120 ppm

CN1C(=O)C2c3[nH]c4ccccc4c3C3CC(C)(C)NC(C)(C)C3C2C1=O (centres unmarked) [Compound 113]
MIC [ppm] E. coli [1]: >120 ppm | MIC [ppm] S. hominis [2]: >120 ppm

CCCC1CCC2c3c([nH]c4ccc(OC)cc34)C3C(=O)NC(=O)C3C2C1 (centres unmarked) [Compound 101]
MIC [ppm] E. coli [1]: >120 ppm | MIC [ppm] S. hominis [2]: >120 ppm

Cn1c2c(c3ccccc31)C1CC(C)(C)NC(C)(C)C1C1C(=O)N(c3ccccc3)C(=O)C21 (centres unmarked) [Compound 24]
MIC [ppm] E. coli [1]: >120 ppm | MIC [ppm] S. hominis [2]: >120 ppm

CCCCCCC1CCC2C3C(=O)NC(=O)C3c3[nH]c4c(CC)cccc4c3C12 (centres unmarked) [Compound 83]
MIC [ppm] E. coli [1]: >120 ppm | MIC [ppm] S. hominis [2]: >120 ppm

CCCN1CCC2c3c([nH]c4ccc(Br)cc34)C3C(=O)N(CC)C(=O)C3C2C1 (centres unmarked) [Compound 46]
MIC [ppm] E. coli [1]: 120 ppm | MIC [ppm] S. hominis [2]: 120 ppm
